The values that follow are results of earlier work, collected in patent US20160008334A1, “Preparations for the Treatment of Sleep-Related Respiratory Disorders” (priority 2013, published 2016).

For this data set the following is noted: compared with the barbiturate phenobarbital; one study (drugbank.ca DB00366).

As for `CN(C)CCOC(C)(c1ccccc1)c1ccccn1` (stereo not shown) [doxylamine succinate], the “effectiveness for use as a sedative” value is recorded as “more effective than the barbiturate phenobarbital”.
